Twelve molecules from paper PMC8815882, “Screening the pandemic response box identified benzimidazole carbamates, Olorofim and ravuconazole as promising drug candidates for the treatment of eumycetoma” (PLoS Neglected Tropical Diseases, 2022) can be followed below.

pIC50: −log10 of the molar value. Where two headings read alike, the source gives them in different places.

Assay [1] deals with M. mycetomatis genome strain MM55. As to the kind of experiment: CLSI M38-A2 based in vitro susceptibility screening (XTT or resazurin), growth at fixed concentration. The format is cell-based, Madurella mycetomatis. The conditions noted are these: Madurella mycetomatis; for Percent fungal survival at 100 µM: read-out: Percentage survival at 100um, 100 uM A (second replicate column).

Another assay relates to M. mycetomatis MM55. Briefly: IC50 determination, 2-fold dilution series 16 to 0.03125 μM. The format is cell-based, Madurella mycetomatis. The settings on record: for pIC50 / IC90: Madurella mycetomatis.
Where [2] appears, read: mean, read-out: Percentage survival at 25um, 25 uM mean.
The mark [3] stands for this setting: replicate A, read-out: Percentage survival at 25um, 25 um A.
Where [4] appears, read: replicate B, read-out: Percentage survival at 25um, 25 uM B.
The mark [5] stands for this setting: replicate C, read-out: Percentage survival at 25um, 25 uM C.
Where [6] appears, read: mean, read-out: Percentage survival at 100um, 100 uM mean.
Where [7] appears, read: replicate (first column), read-out: Percentage survival at 100um, 100 uM A.
[8] abbreviates: replicate (second column), read-out: Percentage survival at 100um, 100 uM A.
Setting [9] is: replicate (third column), read-out: Percentage survival at 100um, 100 uM A.
The mark [10] stands for this setting: mean of three, M. mycetomatis MM55, read-out: Percentage survival at 25um, 25 uM mean.
Setting [11] is: replicate A, M. mycetomatis MM55, read-out: Percentage survival at 25um, 25 um A.
[12] abbreviates: replicate B, M. mycetomatis MM55, read-out: Percentage survival at 25um, 25 uM B.
Where [13] appears, read: replicate C, M. mycetomatis MM55, read-out: Percentage survival at 25um, 25 uM C.
Where [14] appears, read: mean of three, M. mycetomatis MM55, read-out: Percentage survival at 100um, 100 uM mean.
[15] abbreviates: replicate 1, M. mycetomatis MM55, read-out: Percentage survival at 100um, 100 uM A (first replicate column).
Where [16] appears, read: replicate 2, M. mycetomatis MM55.
[17] abbreviates: replicate 3, M. mycetomatis MM55, read-out: Percentage survival at 100um, 100 uM A (third replicate column).
The mark [18] stands for this setting: MM55, replicate 1, read-out: IC50 1 um.
Where [19] appears, read: MM55, replicate 1, read-out: IC90 1 um.
Where [20] appears, read: MM55, replicate 2, read-out: IC50 2 um.
Setting [21] is: MM55, replicate 2, read-out: IC90 2 um.
[22] abbreviates: MM55, replicate 3, read-out: IC50 3 um.
Where [23] appears, read: MM55, replicate 3, read-out: IC90 3 um.
Where [24] appears, read: MM55, Table 3, benzimidazole carbamates, M. mycetomatis, read-out: IC50.
Setting [25] is: mean of three replicates, read-out: Percentage survival at 25um, 25 uM mean.
Setting [26] is: mean of three replicates, read-out: Percentage survival at 100um, 100 uM mean.
The mark [27] stands for this setting: replicate 1, read-out: Percentage survival at 100um, 100 uM A (first replicate column).
The mark [28] stands for this setting: replicate 3, read-out: Percentage survival at 100um, 100 uM A (third replicate column).
[29] abbreviates: MM55, mean of three replicates, read-out: IC50 mean.
[30] abbreviates: MM55, mean of three replicates, read-out: IC90 mean.
Setting [31] is: mean of replicates, read-out: Percentage survival at 25um, 25 uM mean.
[32] abbreviates: mean of replicates, read-out: Percentage survival at 100um, 100 uM mean.

In the case of `Cc1ccc(Oc2ccccc2-c2csc(NC3=NCCCN3)n2)c(C)c1` [MMV1634493], the activity at 25 µM in assay [1] (setting [2]) was 13.4%; in assay [1] (setting [3]), 34.1%; in assay [1] (setting [4]), 1.37%; in assay [1] (setting [5]), 4.64%. The activity at 100 µM came out at 5.01% in assay [1] (setting [6]), 1.69% in assay [1] (setting [7]), 6.56% in assay [1] (setting [8]) and 6.77% in assay [1] (setting [9]). In the assay on M. mycetomatis MM55, the “Drug static or cidal” value is “Static”. The pIC50 is less than 4.60 in the assay with M. mycetomatis MM55 (MM55, mean, read-out: IC50 mean); less than 4.60 in the assay with M. mycetomatis MM55 (MM55, replicate 1, read-out: IC50 1); less than 4.60 with M. mycetomatis MM55 (MM55, replicate 2, read-out: IC50 2); less than 4.60 in the assay on M. mycetomatis MM55 (MM55, replicate 3, read-out: IC50 3). The IC90 is greater than 25 µM in the assay with M. mycetomatis MM55 (MM55, read-out: IC90 mean); greater than 25 µM in the assay on M. mycetomatis MM55 (MM55, replicate 1, read-out: IC90 1); greater than 25 µM in the assay with M. mycetomatis MM55 (MM55, replicate 2, read-out: IC90 2); greater than 25 µM with M. mycetomatis MM55 (MM55, replicate 3, read-out: IC90 3).

As to `O=S(=O)(Nc1cccc2cccnc12)c1ccccc1` [MMV1578890], the activity at 25 µM is 2.42% in assay [1] (setting [10]), 2.33% in assay [1] (setting [11]), 0.789% in assay [1] (setting [12]) and 4.13% in assay [1] (setting [13]). For the same molecule, the activity at 100 µM turned out to be 29.9% in assay [1] (setting [14]), 1.58% in assay [1] (setting [15]) and 6.47% in assay [1] (setting [17]). In assay [1] (setting [16]), the Percent fungal survival at 100 µM is 81.7%. Besides, the “Drug static or cidal” value in the assay on M. mycetomatis MM55 (M. mycetomatis) is listed as “Static”. The pIC50 was 4.98 in the assay with M. mycetomatis MM55 (MM55, mean of replicates, read-out: IC50 mean); 5.17 in the assay with M. mycetomatis MM55 (setting [18]); 4.90 in the assay on M. mycetomatis MM55 (setting [20]); 4.92 with M. mycetomatis MM55 (setting [22]). The IC90 in the assay on M. mycetomatis MM55 (MM55, mean of replicates, read-out: IC90 mean) was 22.7 µM; in the assay with M. mycetomatis MM55 (setting [19]) it was 23.7 µM; in the assay with M. mycetomatis MM55 (setting [21]) it was 22.2 µM; in the assay on M. mycetomatis MM55 (setting [23]) it was 22.2 µM.

For `CCCCOC(=O)Nc1cc2nc(C3CCCCC3)[nH]c2cc1N1CCCC1` [MMV687730], the negative logarithm of the IC50 (pIC50) in the assay on M. mycetomatis MM55 (setting [24]) is 4.94.

For the molecule `Cc1cc(O)c2c(c1)C(=O)c1c(I)c(O)c(I)c(O)c1C2=O` [MMV1581545], the activity at 25 µM in assay [1] (setting [25]) amounted to 12.4%; in assay [1] (setting [3]) it was 10.6%; in assay [1] (setting [4]) it was 4.74%; in assay [1] (setting [5]), 21.8%. For the same molecule, the activity at 100 µM in assay [1] (setting [26]) worked out at 12.4%; in assay [1] (setting [27]) it was 10.8%; in assay [1] (setting [28]) it was 12.3%. Also, the Percent fungal survival at 100 µM in assay [1] (replicate 2) was 14.2%. Also, the “Drug static or cidal” value with M. mycetomatis MM55 is “Cidal”. In addition, the pIC50 in the assay with M. mycetomatis MM55 (setting [29]), with M. mycetomatis MM55 (setting [18]), in the assay with M. mycetomatis MM55 (setting [20]) and with M. mycetomatis MM55 (setting [22]) was less than 4.60 throughout. In addition, the concentration for an effect of 90% (IC90) in the assay on M. mycetomatis MM55 (setting [30]), in the assay with M. mycetomatis MM55 (setting [19]), in the assay on M. mycetomatis MM55 (setting [21]) and in the assay with M. mycetomatis MM55 (setting [23]) was greater than 25 µM each time.

As for `Cc1nc2ccc(Oc3ccccc3)cc2c2c1CCN2CCc1ccccc1` [MMV1634399], the activity at 25 µM in assay [1] (setting [25]) is 3.88%; in assay [1] (setting [3]), -3.19%; in assay [1] (setting [4]) it was -1.6%; in assay [1] (setting [5]), 16.4%. Further, the results for the activity at 100 µM in assay [1] (setting [26]), in assay [1] (setting [27]) and in assay [1] (setting [28]) were 0.985%, 1.91% and 1.92%, respectively. In addition, in assay [1] (replicate 2), the Percent fungal survival at 100 µM is -0.867%. In addition, the “Drug static or cidal” value in the assay with M. mycetomatis MM55 is “Cidal”. The pIC50 with M. mycetomatis MM55 (setting [29]) was 4.93; with M. mycetomatis MM55 (setting [18]) it was 4.85; with M. mycetomatis MM55 (setting [20]) it was 5.01; in the assay with M. mycetomatis MM55 (setting [22]), 4.95. In addition, the 90% effect concentration (IC90) worked out at 22 µM in the assay with M. mycetomatis MM55 (setting [30]), 22.3 µM in the assay with M. mycetomatis MM55 (setting [19]), 22.7 µM with M. mycetomatis MM55 (setting [21]) and 21 µM in the assay on M. mycetomatis MM55 (setting [23]).

With `CC(C)=CCC/C(C)=C/CNCCNC1C2CC3CC(C2)CC1C3` (centres unmarked) [MMV687273], the activity at 25 µM in assay [1] (setting [10]) was 1.12%; in assay [1] (setting [11]), -2.04%; in assay [1] (setting [12]) it was 4.77%; in assay [1] (setting [13]), 0.619%. In addition, the activity at 100 µM came out at 6.61% in assay [1] (setting [14]), 4.04% in assay [1] (setting [15]) and 0.477% in assay [1] (setting [17]). For the same molecule, in assay [1] (setting [16]), the Percent fungal survival at 100 µM was 15.3%. In addition, the “Drug static or cidal” value with M. mycetomatis MM55 (M. mycetomatis) is “Cidal”. In addition, the negative logarithm of the IC50 (pIC50) with M. mycetomatis MM55 (setting [18]) is 4.62; with M. mycetomatis MM55 (setting [20]) it was 4.84; with M. mycetomatis MM55 (setting [22]), less than 4.60. Further, the concentration for an effect of 90% (IC90) in the assay with M. mycetomatis MM55 (setting [19]) was greater than 25 µM; in the assay on M. mycetomatis MM55 (setting [21]), 22.9 µM; in the assay with M. mycetomatis MM55 (setting [23]), greater than 25 µM.

Consider `CCCOc1ccc2nc(NC(=O)OC)[nH]c2c1` [MMV002163, Oxibendazole, reference compound], for which the pIC50 with M. mycetomatis MM55 (setting [24]) was 4.16.

On to `CC[C@H]1OC(=O)[C@H](C)[C@@H](O[C@H]2C[C@@](C)(OC)[C@@H](O)[C@H](C)O2)[C@H](C)[C@@H](O[C@@H]2O[C@H](C)C[C@H](N(C)C)[C@H]2O)[C@](C)(O)C[C@@H](C)C(=O)[C@H](C)[C@@H](O)[C@]1(C)O` [MMV003137], for which the activity at 25 µM is 82.5% in assay [1] (setting [10]), 94.8% in assay [1] (setting [11]), 79.1% in assay [1] (setting [12]) and 73.6% in assay [1] (setting [13]). Further, the figures for the activity at 100 µM in assay [1] (setting [14]), in assay [1] (setting [15]) and in assay [1] (setting [17]) were 79.9%, 78.2% and 87.7%, respectively. For the same molecule, the Percent fungal survival at 100 µM in assay [1] (setting [16]) worked out at 73.7%.

Regarding `CCOc1ccc(/C=N/NC(=O)C2CC2c2ccc(C(C)(C)C)cc2)cc1OCC` (centres unmarked) [MMV1634398], the activity at 25 µM in assay [1] (setting [31]) was 85.9%; in assay [1] (setting [3]), 88.3%; in assay [1] (setting [4]), 97.5%; in assay [1] (setting [5]), 72%. The activity at 100 µM was found to be 81.1% in assay [1] (setting [32]), 88.5% in assay [1] (setting [27]) and 67.1% in assay [1] (setting [28]). Moreover, the Percent fungal survival at 100 µM in assay [1] (replicate 2) is 87.7%.

Regarding `O=C(Cc1ccccc1F)Nc1nc2ccccc2[nH]1` [MMV1578576], the activity at 25 µM in assay [1] (setting [31]) worked out at 70.6%; in assay [1] (setting [3]) it was 73.4%; in assay [1] (setting [4]), 74.5%; in assay [1] (setting [5]), 63.8%. Further, the activity at 100 µM in assay [1] (setting [32]) was 78.7%; in assay [1] (replicate 1, read-out: Percentage survival at 100um, 100 uM A) it was 102%; in assay [1] (replicate 2, read-out: Percentage survival at 100um, 100 uM A) it was 65.1%; in assay [1] (replicate 3, read-out: Percentage survival at 100um, 100 uM A) it was 69.2%.

With `Cc1c(N)cccc1Cn1ccc(OCCc2cccs2)cc1=O` [MMV1578557], the activity at 25 µM in assay [1] (setting [10]) stood at 79.8%; in assay [1] (setting [11]), 82.2%; in assay [1] (setting [12]), 84.5%; in assay [1] (setting [13]), 72.6%. Also, the figures for the activity at 100 µM in assay [1] (setting [14]), in assay [1] (setting [15]) and in assay [1] (setting [17]) were 78.3%, 73% and 80%, respectively. In addition, in assay [1] (setting [16]), the Percent fungal survival at 100 µM is 81.9%.

For the molecule `CN(C/C=C/C#CC(C)(C)C)Cc1cccc2ccccc12` [MMV1634359], the activity at 25 µM came out at 97.3% in assay [1] (setting [2]), 132% in assay [1] (setting [3]), 99.8% in assay [1] (setting [4]) and 60.4% in assay [1] (setting [5]). The activity at 100 µM in assay [1] (setting [6]) is 81.5%; in assay [1] (setting [7]), 86.8%; in assay [1] (setting [8]) it was 58.9%; in assay [1] (setting [9]) it was 98.8%.
